Set-up: Initial absorbance (@600 nm): dose or concentration left out as unconfirmed
Text: The final criteria for the claimed composition is the ability for the dry product to redissolve into a soluble/colloidal water-based solution at an example concentration of 10 g/L. Before redissolving in water, the dry product is ground into a powder using any mechanical grinding/milling/pulverizing methods, in this case a mortar and pestle.

## paramylon [Sample A]
  Absorbance at 60 min/Initial absorbance: 0.535
  Initial absorbance (@600 nm): 1.950
  Solubility as defined by the absorbance method (soluble if the decrease is not more than 25% after 60 minutes): NOT SOLUBLE
